From patent publication EP0549365A1, “Thiazolidine compounds, their preparation and their therapeutic uses” (Sankyo Company Limited, priority 1991, dated 1993)

tested on: diabetic male mice of the KK strain; assay: Hypoglycemic activity (blood glucose lowering in diabetic KK mice); type: in vivo; conditions: Mus musculus, 50 mg/kg oral, blood from tail vein after 18 hours free feeding, relative to solvent group, read-out: BGL lowering rate (%)
Description: The test animals used were diabetic male mice of the KK strain, each having a body weight more than 40 g. Each animal was orally administered 50 mg/kg of a test compound and then allowed to feed freely for 18 hours. At the end of this time, blood was collected from the tail veins without anesthesia. The blood glucose level (BGL) was determined by means of a glucose analyzer (GL-101, manufactured by Mitsubishi Kasei Co.).
The blood glucose lowering rate was calculated by the following equation: Blood glucose lowering rate (%) = [(BGLs - BGLt )/BGLs ] x 100 [formula] where: BGLs is the BGL in the group administered a solvent; and BGLt is the BGL in the group administered a test compound.

With `COc1c(C)c(C)c(OC)c(CCCCOc2ccc(CC3SC(=O)NC3=O)cc2)c1C` (centres unmarked) [Example 12] as the compound, how does the inhibition in vivo at 50 mg/kg read?
The inhibition in vivo at 50 mg/kg was 24%.

Which inhibition in vivo at 50 mg/kg does the source give for `COc1c(C)c(COc2ccc(CC3SC(=O)NC3=O)cc2)c(OC)c2ccccc12` (centres unmarked) [Example 33] here?
The inhibition in vivo at 50 mg/kg was 28.4%.

`CC(=O)Oc1c(C)c(C)c(OC(C)=O)c(Oc2ccc(CC3SC(=O)NC3=O)cc2)c1C` (centres unmarked) [Example 7, 5-[4-(2,5-Diacetoxy-3,4,6-trimethylphenoxy)benzyl]thiazolidine-2,4-dione] was tested. Which inhibition in vivo at 50 mg/kg did it give?
The inhibition in vivo at 50 mg/kg was 24%.

With `CC1=C(C)C(=O)C(CCC(C)(O)COc2ccc(CC3SC(=O)NC3=O)cc2)=C(C)C1=O` (centres unmarked) [Control 1, 5-{4-[2-Methyl-2-hydroxy-4-(3,5,6-trimethyl-1,4-benzoquinon-2-yl)butoxy]benzyl}thiazolidine-2,4-dione, reference compound] as the compound, how does the inhibition in vivo at 50 mg/kg read?
The inhibition in vivo at 50 mg/kg was -0.5%.

`CC(=O)Oc1c(C)c(C)c(OC(C)=O)c(CCCOc2ccc(CC3SC(=O)NC3=O)cc2)c1C` (centres unmarked) [Example 23] was tested. Which inhibition in vivo at 50 mg/kg did it give?
The inhibition in vivo at 50 mg/kg was 24.4%.

How did the inhibition in vivo at 50 mg/kg turn out when `COc1c(C)c(CCCOc2ccc(CC3SC(=O)NC3=O)cc2)c(OC)c(OC)c1OC` (centres unmarked) [Example 18] was run?
Its inhibition in vivo at 50 mg/kg is 22%.

With `Cc1c(C)c(O)c(CCC(C)(O)COc2ccc(CC3SC(=O)NC3=O)cc2)c(C)c1O` (centres unmarked) [Control 2, 5-{4-[4-(2,5-Dihydroxy-3,4,6-trimethylphenyl)-2-hydroxy-2-methylbutoxy]benzyl}thiazolidine-2,4-dione, reference compound] as the compound, how does the inhibition in vivo at 50 mg/kg read?
Its inhibition in vivo at 50 mg/kg is 10.4%.

For `COc1c(C)c(CCCCOc2ccc(CC3SC(=O)NC3=O)cc2)c(OC)c(OC)c1OC` (centres unmarked) [Example 19], which inhibition in vivo at 50 mg/kg is on record?
Its inhibition in vivo at 50 mg/kg is 26.6%.

For `COc1cc(COc2ccc(CC3SC(=O)NC3=O)cc2)c(OC)c2ccccc12` (centres unmarked) [Example 31], which inhibition in vivo at 50 mg/kg is on record?
Its inhibition in vivo at 50 mg/kg is 32.9%.

`COc1c(C)c(CCOc2ccc(CC3SC(=O)NC3=O)cc2)c(OC)c(OC)c1OC` (centres unmarked) [Example 16] was tested. Which inhibition in vivo at 50 mg/kg did it give?
Its inhibition in vivo at 50 mg/kg is 20.2%.

Which inhibition in vivo at 50 mg/kg does the source give for `COc1cc(CCOc2ccc(CC3SC(=O)NC3=O)cc2)c(OC)c2ccccc12` (centres unmarked) [Example 34] here?
The inhibition in vivo at 50 mg/kg was 40%.

With `CC(=O)Oc1c(C)c(C)c(OC(C)=O)c(CCOc2ccc(CC3SC(=O)NC3=O)cc2)c1C` (centres unmarked) [Example 21] as the compound, how does the inhibition in vivo at 50 mg/kg read?
Its inhibition in vivo at 50 mg/kg is 33.4%.

How did the inhibition in vivo at 50 mg/kg turn out when `COc1c(C)c(C)c(OC)c(COc2ccc(CC3SC(=O)NC3=O)cc2)c1C` (centres unmarked) [Example 9] was run?
Its inhibition in vivo at 50 mg/kg is 28.8%.

`COc1c(C)c(C)c(OC)c(CCCOc2ccc(CC3SC(=O)NC3=O)cc2)c1C` (centres unmarked) [Example 10, 5-{4-[3-(2,4,5-trimethyl-3,6-dimethoxyphenyl)propoxy]benzyl}thiazolidine-2,4-dione] was tested. Which inhibition in vivo at 50 mg/kg did it give?
Its inhibition in vivo at 50 mg/kg is 46%.
